Reference: PubChem BioAssay AID1963843 (Molecular Pharmacology Branch, DTP, NCI, 2024)

Test system: 616215-338-R-J1-PDC complex spheroid viability
Test: Anticancer human tumor 616215-338-R-J1-PDC patient-derived colon adenocarcinoma cell line growth inhibition [POLQ]
Details: for IC50: curve of first compound; for viability, T/C: stronger effect = lower value
Description: Multicellular complex tumor spheroid response to Polymerase (POL) inhibitors (novobiocin, ART-558, RP6685) in combination with a variety of drugs and investigational agents in selected tumor cell lines
The POL inhibitors (novobiocin, ART-558, and RP6685) were evaluated both individually and in combination with standard of care and investigational anticancer small molecules within a complex spheroid model of solid tumors. . Complex spheroids include a stromal component modeled by human endothelial cells (HUVEC) and fibroblasts modeled by human mesenchymal stem cells (MSCs). The concentration ranges selected for each drug and investigational agent were based upon clinically achievable concentrations if the clinical Cmax of the agent was known.
Compounds. The drugs and investigational agents: novobiocin (NSC847541), ART-558 (NSC835418), RP-6685 (NSC848927), peposertib (NSC802822), ceralasertib (NSC780249), elimusertib (NSC800525), camonsertib (NSC841442), AZD-1390 (NSC803789), olaparib (NSC753686), talazoparib (NSC767125), rucaparib (NSC756644), sotorasib (NSC818433), MRTX-1133 (NSC836407), SN-38 (NSC673596), topotecan (NSC609699), epotoside (NSC141540), doxorubicin (NSC123127), gemcitabine (NSC613327), 5-fluorouracil (NSC19893), paclitaxel (NSC125973), vemurafenib (NSC761431), MSA-2 (NSC828583), SN-011 (NSC837082), adavosertib (NSC754352), prexasertib (NSC758257), carboplatin (NSC241240) and oxaliplatin (NSC266046), were obtained from the National Cancer Institute (NCI) Developmental Therapeutics Program Chemical Repository (21). The FDA-approved anticancer drug set is available from the Developmental Therapeutics Program at https://dtp.cancer.gov/organization/dscb/obtaining/. […] The stock solutions were prepared in dimethyl sulfoxide (DMSO, Sigma-Aldrich, St. Louis, MO, cat. D2650), except for the platinum compounds which were prepared in saline (Quality Biological, Gaithersburg, MD, cat. 114-055-101), at 800-fold the tested concentration and stored at -70 degrees C prior to their use. All drugs and investigational agents were tested over a range starting from a high concentration at or near the clinical Cmax and decreasing in half-log increments. If the clinical Cmax for an agent had not been determined, the highest concentration tested was 10 microM, except for SN-38, which was tested at a high concentration of 1 microM.
Cell Culture. All cells were maintained in an incubator at 37 degrees C and 5% CO2 with 95% humidity. The PDC lines were cultured according to standard operating procedures established by the NCI PDMR (https://pdmr.cancer.gov). Table 3 of the manuscript, lists the cell lines along with the number of the three cell types plated to form the mct-spheroids and media for tumor cell growth. After thawing, all PDC lines, except 997537-175-T-J1-PDC and 415267-285-R-J2-PDC, were cultured in Matrigel-coated flasks prepared with a working solution of 1X Ham's F-12 nutrient mix, without supplementation (Thermo Fisher Scientific, cat. 11765054), 100 U/mL penicillin-streptomycin (Thermo Fisher Scientific, cat. 15140122), and 2.5% Matrigel (Corning Inc., Corning, NY, cat. 354248) for the first three passages. The two PDC lines 997537-175-T-J1-PDC and 415267-285-R-J2-PDC were cultured on uncoated flasks. The 857933-349-R-J2-PDC line was cultured in 6C/Colon 1B media containing advanced DMEM/F-12 (Thermo Fisher Scientific, cat. 12634028), 10 mM HEPES (Thermo Fisher Scientific, cat. 15630080), 1X GlutaMAX supplement (Thermo Fisher Scientific, cat. 35050061), 0.1 mg/mL primocin (InvivoGen, San Diego, CA, cat. ant-pm-2), 10% defined fetal bovine serum, heat inactivated (HyClone Laboratories Inc., Logan, UT, cat. SH30070.03HI), 50% L-WRN conditioned media (ATCC, cat. CRL-3276), 1.25 mM N-Acetyl-L-cysteine (Sigma-Aldrich, cat. A9165), 10 mM nicotinamide (Sigma-Aldrich, cat. N0636), 1X B-27 supplement (Thermo Fisher Scientific, cat. 17504044), 1X N-2 supplement (Thermo Fisher Scientific, cat. […]

[1] = second compound 0.0316 µM, first compound 0.0316 µM
[2] = second compound 0.0316 µM, first compound 0.1 µM
[3] = second compound 0.0316 µM, first compound 0.316 µM
[4] = second compound 0.0316 µM, first compound 1 µM
[5] = second compound 0.0316 µM, first compound 3.16 µM
[6] = second compound 0.0316 µM, first compound 10 µM
[7] = second compound 0.1 µM, first compound 0.0316 µM
[8] = second compound 0.1 µM, first compound 0.1 µM
[9] = second compound 0.1 µM, first compound 0.316 µM
[10] = second compound 0.1 µM, first compound 1 µM
[11] = second compound 0.1 µM, first compound 3.16 µM
[12] = second compound 0.1 µM, first compound 10 µM
[13] = second compound 0.316 µM, first compound 0.0316 µM
[14] = second compound 0.316 µM, first compound 0.1 µM
[15] = second compound 0.316 µM, first compound 0.316 µM
[16] = second compound 0.316 µM, first compound 1 µM
[17] = second compound 0.316 µM, first compound 3.16 µM
[18] = second compound 0.316 µM, first compound 10 µM
[19] = second compound 1 µM, first compound 0.0316 µM
[20] = second compound 1 µM, first compound 0.1 µM
[21] = second compound 1 µM, first compound 0.316 µM
[22] = second compound 1 µM, first compound 1 µM
[23] = second compound 1 µM, first compound 3.16 µM
[24] = second compound 1 µM, first compound 10 µM
[25] = second compound 3.16 µM, first compound 0.0316 µM
[26] = second compound 3.16 µM, first compound 0.1 µM
[27] = second compound 3.16 µM, first compound 0.316 µM
[28] = second compound 3.16 µM, first compound 1 µM
[29] = second compound 3.16 µM, first compound 3.16 µM
[30] = second compound 3.16 µM, first compound 10 µM
[31] = second compound 10 µM, first compound 0.0316 µM
[32] = second compound 10 µM, first compound 0.1 µM
[33] = second compound 10 µM, first compound 0.316 µM
[34] = second compound 10 µM, first compound 1 µM
[35] = second compound 10 µM, first compound 3.16 µM
[36] = second compound 10 µM, first compound 10 µM
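Further: spheroids exposed to compounds for one week before readout.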
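Wherever viability, T/C is given: percent viability relative to DMSO vehicle wells taken as 100%.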

Compound `COc1cccc2c1C(=O)c1c(O)c3c(c(O)c1C2=O)CC(O)(C(=O)CO)CC3OC1CC(N)C(O)C(C)O1` (centres undefined) + Cc1cccc(N(C)C(=O)C2C(O)CCN2c2nc(C)cc(C(F)(F)F)c2C#N)c1 has an IC50 (second compound 0.0316 µM) of 1070 nM, an IC50 (second compound 0.1 µM) of 1000 nM and an IC50 (second compound 0.316 µM) of 785 nM. For the same compound, the IC50 (second compound 1 µM) was 688 nM, the IC50 (second compound 3.16 µM) was 665 nM and the IC50 (second compound 10 µM) was 823 nM. The viability, T/C [1] was 95.8%, the viability, T/C [2] was 92.5% and the viability, T/C [3] was 79.8%. It also gave a viability, T/C [4] of 55.9%, a viability, T/C [5] of 6.78% and a viability, T/C [6] of 0.53%. The viability, T/C [7] was 109%, the viability, T/C [8] was 92.1% and the viability, T/C [9] was 80%. The viability, T/C [10] was 57.5%, the viability, T/C [11] was 6.89% and the viability, T/C [12] was 0.26%. The viability, T/C [13] was 106%, the viability, T/C [14] was 83.4% and the viability, T/C [15] was 69.2%. For the same compound, the viability, T/C [16] was 56.7%, the viability, T/C [17] was 3.48% and the viability, T/C [18] was 0.22%. For the same compound, the viability, T/C [19] was 111%, the viability, T/C [20] was 85.8% and the viability, T/C [21] was 71.2%. The viability, T/C [22] was 48.3%, the viability, T/C [23] was 3.44% and the viability, T/C [24] was 0.22%. For the same compound, the viability, T/C [25] was 96.6%, the viability, T/C [26] was 79.9% and the viability, T/C [27] was 65.5%. The viability, T/C [28] was 48.9%, the viability, T/C [29] was 1.58% and the viability, T/C [30] was 0.25%. It also gave a viability, T/C [31] of 83.2%, a viability, T/C [32] of 82.6% and a viability, T/C [33] of 76.7%. The viability, T/C [34] was 44.7%, the viability, T/C [35] was 0.88% and the viability, T/C [36] was 0.31%.

Work on `O=c1[nH]cc(F)c(=O)[nH]1` + Cc1cccc(N(C)C(=O)C2C(O)CCN2c2nc(C)cc(C(F)(F)F)c2C#N)c1 yielded an IC50 (second compound 0.0316 µM) of over 10000 nM, an IC50 (second compound 0.1 µM) of over 10000 nM and an IC50 (second compound 0.316 µM) of over 10000 nM. For the same compound, the IC50 (second compound 1 µM) was over 10000 nM, the IC50 (second compound 3.16 µM) was over 10000 nM and the IC50 (second compound 10 µM) was over 10000 nM. For the same compound, the viability, T/C [1] was 92.1%, the viability, T/C [2] was 108% and the viability, T/C [3] was 69.8%. The viability, T/C [4] was 68.6%, the viability, T/C [5] was 61.2% and the viability, T/C [6] was 56.3%. It also gave a viability, T/C [7] of 101%, a viability, T/C [8] of 108% and a viability, T/C [9] of 68.7%. The viability, T/C [10] was 61.7%, the viability, T/C [11] was 60.1% and the viability, T/C [12] was 63.4%. The viability, T/C [13] was 102%, the viability, T/C [14] was 116% and the viability, T/C [15] was 75.6%. The viability, T/C [16] was 57.5%, the viability, T/C [17] was 56.9% and the viability, T/C [18] was 66.8%. For the same compound, the viability, T/C [19] was 106%, the viability, T/C [20] was 99.7% and the viability, T/C [21] was 68.6%. The viability, T/C [22] was 65.1%, the viability, T/C [23] was 56.2% and the viability, T/C [24] was 58.2%. It also gave a viability, T/C [25] of 99.9%, a viability, T/C [26] of 102% and a viability, T/C [27] of 70%. The viability, T/C [28] was 63.6%, the viability, T/C [29] was 59.9% and the viability, T/C [30] was 64.2%. The viability, T/C [31] was 97.6%, the viability, T/C [32] was 106% and the viability, T/C [33] was 70.3%. The viability, T/C [34] was 54.9%, the viability, T/C [35] was 54.5% and the viability, T/C [36] was 59.6%.
